# Target: T1, PKCε (Rattus norvegicus, UniProt P09216)
# T1 construct: endogenous in cells; host or cells: primary cultured cerebral cortex cells from 18-day Wistar/ST rat fetuses
# T1 sequence (P09216 1-737): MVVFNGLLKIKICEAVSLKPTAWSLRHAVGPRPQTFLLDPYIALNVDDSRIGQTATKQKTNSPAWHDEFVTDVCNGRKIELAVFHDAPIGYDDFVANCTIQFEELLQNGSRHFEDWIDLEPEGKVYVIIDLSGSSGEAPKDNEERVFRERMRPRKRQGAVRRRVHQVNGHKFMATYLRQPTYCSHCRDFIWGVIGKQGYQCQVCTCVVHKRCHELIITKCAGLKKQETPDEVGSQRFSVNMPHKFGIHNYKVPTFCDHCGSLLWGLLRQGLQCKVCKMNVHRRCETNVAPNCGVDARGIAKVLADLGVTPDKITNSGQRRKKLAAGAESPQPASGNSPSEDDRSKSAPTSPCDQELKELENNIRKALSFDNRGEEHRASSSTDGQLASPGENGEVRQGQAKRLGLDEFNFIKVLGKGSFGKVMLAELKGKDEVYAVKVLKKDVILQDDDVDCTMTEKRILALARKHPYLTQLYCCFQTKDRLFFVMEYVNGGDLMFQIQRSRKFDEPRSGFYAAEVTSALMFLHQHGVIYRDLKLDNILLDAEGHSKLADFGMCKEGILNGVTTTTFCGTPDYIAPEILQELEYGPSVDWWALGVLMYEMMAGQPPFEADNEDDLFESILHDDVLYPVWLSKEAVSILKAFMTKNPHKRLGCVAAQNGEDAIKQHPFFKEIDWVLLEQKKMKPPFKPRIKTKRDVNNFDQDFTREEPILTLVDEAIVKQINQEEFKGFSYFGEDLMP
# Assay: PKC activity enhancing effect in cultured cells (PKCε migration from cytosol to membrane fraction, western blotting)
# Type: cell-based
# Settings: cultured cerebral cortex cells of Wistar/ST rat fetuses, 0.1 μmol/L in terms of T-817
# Method: The PKC activity was determined, according to the method of Etcheberrigaray et al. (Proceedings of the National Academy of Sciences of the United States of America, 2004, Vol. 101, No. 30, p. 11141-11146), as applicable. At the time of activation, PKC migrates from the cytoplasm to membranes. The PKC level in the membrane fraction over that in the cytosol fraction was taken as the index of PKC activation. In this experiment, the activity of PKCε, a known isoform of PKC, was measured.
# Cultured cells were prepared following the method of Hirata et al. (J. Pharmacol. Exp. Ther., 2005, Vol. 314, No. 1, p. 252-259). […]
# On Day 8 from the start of the culturing, T-817MA was added to the cells to a final concentration of 0.1 μmol/L, in terms of T-817. […] The protein concentration in the cytosol fraction and the membrane fraction was measured, and the protein content in each sample was adjusted to a certain constant level with the extraction buffer or the extraction buffer containing Triton X-100. […] Then, after washing with PBST, the membrane was treated with ECL plus reagent (manufactured by GE Healthcare Bio-Sciences) and the luminescence was detected by a Lumino Image Analyzer. […]
structure (smiles),measurement,setting,value
"OC1CN(CCCOCCc2ccc3sccc3c2)C1 [T-817MA, 1-(3-(2-(1-benzothiophen-5-yl)ethoxy)propyl)azetidin-3-ol]",PKCε migration from the cytoplasm to membranes (index of PKC activation),2 hours after treatment,migrated from the cytoplasm to membranes
same,PKCε migration from the cytoplasm to membranes (index of PKC activation),4 hours after treatment,migrated from the cytoplasm to membranes

# Source: patent US20110245228A1, “PROTEIN KINASE C ACTIVITY ENHANCER CONTAINING ALKYL ETHER DERIVATIVE OR SALT THEREOF” (Toyama Chemical Co., Ltd., priority 2006, published 2011)
